Source: US20230348453A1, “HALOGENATED-HETEROARYL AND OTHER HETEROCYCLIC KINASE INHIBITORS, AND USES THEREOF” (iOmx Therapeutics AG, priority 2020, published 2023)
Values joined by “and” are separate entries in the source; they are usually repeats but may differ in a detail not shown here. Equal entries are not always repeated.

Tests used:
[1] = system: NFKB activity in reporter PANC-1 cells; assay: NFKB luciferase reporter activity in PANC-1 cells; format: cell-based; conditions: Homo sapiens; PANC-1 reporter cells, +10 ng/ml rHuTNF for 8 h
Description: Luciferase activity was normalized to PANC-1 cells treated with rHuTNF without inhibitor (DMSO only). Y-axis=NFKB activity (%). […] Whole cell lysates were analyzed in a Meso Scale Discovery (MSD) assay with anti-HDAC4 capture and anti-pHDAC4 detection antibodies. HDAC4 phosphorylation was normalized to untreated PANC-1 cells (DMSO only). Y-axis=HDAC4 phosphorylation (%). X-axis=Compound concentration (nM).
FIG. 28: depicts: (A) and (B) effect of compound E9 on NFKB activity. […] Luciferase activity was normalised to cells treated with rHuTNF without inhibitor (DMSO only). Y-axis=NFKB activity (%). X-axis=compound concentration (nM); Bar “A” viability without compound and without TNF; bar “B” viability without compound and with 10 ng/ml TNF; and (C) Effect of compound E9 on HDAC4 phosphorylation. […] Whole cell lysates were analysed in a Meso Scale Discovery (MSD) assay with anti-HDAC4 capture and anti-pHDAC4 detection antibodies. HDAC4 phosphorylation was normalized to untreated PANC-1 cells (DMSO only). Y-axis=HDAC4 phosphorylation (%). X-axis=Compound concentration (nM).

[2] = Metabolite profile in hepatocytes / in vivo
Description: Metabolites are identified using high-resolution mass spectrometry.

[3] = system: EMT6 breast cancer tumours; assay: EMT6 immune-excluded (cold) tumour syngeneic mouse model; format: in vivo, BALB/c mice; design: key to Tukey's multiple comparisons test, Significance summary: ns = not significant; conditions: for Tukey's multiple comparisons test, Significance summary: EMT6 model; for tumour growth inhibition (TGI): EMT6
SIK3 = SIK3 (Homo sapiens (Human), UniProt Q9Y2K2); assay: SIK3 kinase inhibition (IC50); conditions: read-out: Kinase: IC50 (nM) SIK3
MC38 tumour = assay: MC38 syngeneic tumour model, tumour growth and survival; format: in vivo, mice; conditions: E9 24 mg/kg BID compared to dasatinib 30 mg/kg QD
Description: Error bars SEM. X-axes: Days. Statistical significance was calculated with two-way ANOVA analysis including Tukey's multiple comparison analysis. ***p<0.001; (B) Body weight kinetics of the mice in (A). Y-axis: Mean body weight change (%).
Y-axis=Mean tumour volume (mm3). […] X-axis=Days. […] X-axis: Days.
Left hand column=compound treatment group; and right hand column=vehicle treatment group. Y axes=Tumour volume (mm3); X axes=Days after inoculation.
FIG. 29: depicts the effect of compound E9 and anti PD-1 mAB (alone or in combination) on in vivo tumour growth (mean+/−SEM) in a MC38 syngeneic tumour model. (A) Y axes=Tumour volume (mm3); X axes=Days after start of therapy. Vehicle+anti PD-1 mAB (squares), vehicle+mIgG1e ctr (circles), E9+anti PD-1 mAB (inverted triangles), and E9+mIgG1e ctr (triangles). (B) Median overall survival.) Y axes=Probability of survival (%); X axes=Days after start of therapy. Vehicle+anti PD-1 mAB (grey/dashed), vehicle+mIgG1e ctr (black/solid), E9+anti PD-1 mAB (grey/solid), and E9+mIgG1e ctr (black/dashed). […] (C) E9 25 mg/kg BID; (D) aPD-1 2.5 mg/kg; (E) E9 50 mg/kg BID+aPD-1 2.5 mg/kg; and (F) vehicle.

[4] = Screening PK in mice after 30 mg/kg po; conditions: for concentration at 6 h: mice, 30 mg/kg po
HCK = HCK (Homo sapiens (Human), UniProt P08631); format: biochemical; conditions: Kinase Profiler
[5] = total plasma concentration at 30 mg/kg p.o dose, fold of C7 (C7 = 1×)

Cc1nc(Nc2ncc(C(=O)Nc3c(CF)csc3Cl)s2)cc(N2CCN(C)CC2)n1 [Compound E9, N-(2-chloro-4-(fluoromethyl)thiophen-3-yl)-2-((2-methyl-6-(4-methylpiperazin-1-yl)pyrimidin-4-yl)amino)thiazole-5-carboxamide]
EC50 [1]: 405 nM
quinone-imine reactive metabolite [2]: not observed
Tukey's multiple comparisons test, Significance summary ([3]; E9 25 mg/kg bid vs. E9 […] bid): ns
Tukey's multiple comparisons test, Significance summary ([3]; E9 25 mg/kg qd vs. E9 5 mg/kg bid): ns
tumour growth inhibition (TGI) ([3]; 5 mg/kg BID): 24% and 25%
tumour growth inhibition (TGI) ([3]; 25 mg/kg BID): 37%
tumour growth inhibition (TGI) ([3]; 25 mg/kg QD): 9%
Tukey's multiple comparisons test, Significance summary ([3]; Vehicle vs. E9 25 mg/kg qd): ns
IC50 (SIK3): < 20 nM
tumour growth inhibition (MC38 tumour): superior and more uniform tumour growth inhibition
fold improvement of free serum concentration over C7 ([4]; mouse, in vivo): 2 fold
fold improvement of total serum concentration over C7 ([4]; mouse, in vivo): 4.5 fold
Cmax at 2 h ([4]; mouse, plasma, po, 30 mg/kg): 426 ng/mL
concentration at 6 h ([4]; mouse, plasma, po, 30 mg/kg, Free plasma concentration after 6 h (nM)): 7.7 nM
concentration at 6 h ([4]; mouse, plasma, po, 30 mg/kg, Plasma concentration after 6 h (nM)): 309 nM
AUC0-last (nM*h), relative to C7 [4, 5]: 8.2×
C max (ng/ml), relative to C7 [4, 5]: 5.6×
MRT0-last (h), relative to C7 [4, 5]: 1.2×
t1/2 (h), relative to C7 [4, 5]: 2×
HCK residual activity (HCK): less than 1%
